Measured values as given in PMC3748103, “Characterization of FKGK18 as Inhibitor of Group VIA Ca^2+-Independent Phospholipase A2 (iPLA2β): Candidate Drug for Preventing Beta-Cell Apoptosis and Diabetes” (PLoS ONE, 2013).

Target: T1, iPLA2β (Group VIA Ca^2+-independent phospholipase A2) (Rattus norvegicus, UniProt P97570)
T1 construct: gene Pla2g6; iPLA2β overexpressed in INS-1 insulinoma cells (OE), cytosol
T1 sequence (P97570 1-807): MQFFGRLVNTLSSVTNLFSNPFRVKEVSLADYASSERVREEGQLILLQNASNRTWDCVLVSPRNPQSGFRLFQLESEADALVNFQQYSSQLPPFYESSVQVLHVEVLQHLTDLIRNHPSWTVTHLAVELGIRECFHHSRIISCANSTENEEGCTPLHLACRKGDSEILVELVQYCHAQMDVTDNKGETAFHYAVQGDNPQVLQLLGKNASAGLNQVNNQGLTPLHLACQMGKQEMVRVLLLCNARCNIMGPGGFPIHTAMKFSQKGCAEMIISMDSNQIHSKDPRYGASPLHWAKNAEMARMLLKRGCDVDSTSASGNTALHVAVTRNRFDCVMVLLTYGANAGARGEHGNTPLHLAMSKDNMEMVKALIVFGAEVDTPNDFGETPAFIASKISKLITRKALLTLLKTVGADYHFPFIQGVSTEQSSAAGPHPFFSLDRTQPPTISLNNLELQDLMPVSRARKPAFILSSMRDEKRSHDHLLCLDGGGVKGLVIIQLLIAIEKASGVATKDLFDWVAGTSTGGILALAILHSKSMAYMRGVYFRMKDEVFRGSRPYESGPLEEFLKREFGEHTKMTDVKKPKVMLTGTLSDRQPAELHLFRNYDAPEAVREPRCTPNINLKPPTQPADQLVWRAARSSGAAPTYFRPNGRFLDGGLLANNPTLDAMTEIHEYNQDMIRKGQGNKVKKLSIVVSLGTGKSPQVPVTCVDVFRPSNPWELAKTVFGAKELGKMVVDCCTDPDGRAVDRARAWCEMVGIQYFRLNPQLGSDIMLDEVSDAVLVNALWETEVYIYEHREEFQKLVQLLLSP
Assay: radioactive PLA2 activity assay ([…]-PAPC) in cytosol of iPLA2β-overexpressing INS-1 cells
Assay type: biochemical

SMILES	IC50
O=C(CCCCc1ccc2ccccc2c1)C(F)(F)F [FKGK18, 1,1,1-trifluoro-6-(naphthalen-2-yl)hexan-2-one]	~50 nM
O=C1O/C(=C/Br)CC[C@@H]1c1cccc2ccccc12 [R-BEL, (E)-6-(bromo-methylene) tetrahydro-3-(1-naphthalenyl)-2H-pyran-2-one]	~3000 nM
